Literature values in patent US10201537B2 (INFLAMMATORY RESPONSE RESEARCH, INC., priority 2013, dated 2019).
Where two headings read alike, the source gives them in different places.

Key:
[1] = in vivo
[2] = tested on: histamine induced wheal and flare; conditions: levocetirizine 5 mg per day vs fexofenadine 180 mg per day
[3] = warfarin, theophylline, digoxin, terfenadine, oral contraceptives, prednisone
[4] = for time to steady state level: montelukast, oral
influenza = conditions: human, in vivo
[5] = tested on: granulocyte and macrophage proliferation; conditions: in vivo

For O=C(O)COCCN1CCN([C@H](c2ccccc2)c2ccc(Cl)cc2)CC1 [Levocetirizine], the eosinophil migration (eosinophil migration) is listed as “decrease eosinophil migration”, the “time to steady state level” value [1] is listed as 40 h and the effectiveness versus fexofenadine [2] is listed as “more effective than fexofenadine”. The “inflammatory mediators IL-4, IL-6, and IL-8” value (IL-4, IL-6, and IL-8) was “decrease inflammatory mediators”, the “principal side effect at higher doses” value (humans; higher doses) was “Sedation” and the “doses safely administered in humans” value (humans; in vivo) was “up to 30 mg/day”.

In the case of CC(C)(O)c1ccccc1CC[C@@H](SCC1(CC(=O)O)CC1)c1cccc(/C=C/c2ccc3ccc(Cl)cc3n2)c1 [Montelukast], the drug interactions [3] is listed as “no drug interactions”, the “plasma concentration area under the curve profile” value ([4]; IV montelukast 7 mg vs 10 mg oral tablet) is listed as “comparable to the approved 10 mg oral montelukast tablet” and the absorption ([4]; in vivo) is listed as “rapidly absorbed”. For the same molecule, the “linear pharmacokinetics to dose” value ([4]; in vivo) was at most 50 mg, the “time to peak plasma concentration” value ([4]; in vivo) was 3 to 4 h and the “time to steady state level” value [4] was “less than two days”. For the same molecule, the “time to steady state level” value ([4]; listed as montelukast) was “within two days”, the “effect of a standard meal on oral bioavailability and Cmax” value ([4]; standard meal) was “not affected by a standard meal” and the “doses without clinically important adverse experiences” value (adult patients; adult patients, 22 weeks) was “up to 200 mg/day”. For the same molecule, the “doses without clinically important adverse experiences” value (adult patients; short-term studies, approximately one week) was “up to 900 mg/day”.

For CCOC(=O)C1=C[C@@H](OC(CC)CC)[C@H](NC(C)=O)[C@@H](N)C1 [oseltamivir], the “influenza related lower respiratory tract complications” value (influenza) is given as “did not appear to reduce influenza related lower respiratory tract complications”.

B1: filgrastim (protein, chains of the INN, looked up)
chain: MTPLGPASSLPQSFLLKCLEQVRKIQGDGAALQEKLCATYKLCHPEELVLLGHSLGIPWAPLSSCPSQALQLAGCLSQLHSGLFLYQGLLQALEGISPELGPTLDTLQLDVADFATTIWQQMEELGMAPALQPTQGAMPAFASAFQRRAGGVLVASHLQSFLEVSYRVLRHLAQP
modifications: N-terminal methionine, non-glycosylated
notes: protein stimulating granulocyte and macrophage proliferation and differentiation
For B1, the serious reactions [5] is given as “splenic rupture, ARDS, thrombocytopenia, cutaneous vasculitis, and hemorrhage”.
